Data on one compound can be found in ChEMBL document CHEMBL3745705, “Discovery of Oral VEGFR-2 Inhibitors with Prolonged Ocular Retention That Are Efficacious in Models of Wet Age-Related Macular Degeneration” (J Med Chem, 2015).

Data set [1] relates to Mus musculus. As to the kind of experiment: Antiangiogenic activity in mouse model of laser-induced choroidal neovascularization assessed as inhibition of neovascular lesion formation at 100 mg/kg, po bid for 7 days. The class given is functional. As to conditions: 168 h.
Data set [2] is described as follows: Plasma concentration in mouse model of laser-induced choroidal neovascularization at 100 mg/kg, po bid for 7 days measured 16 hrs post last dose. The class given is ADME, organism-based.

Each structure is given as a SMILES string.

In the case of `Cc1ccc(Nc2nccc(N(C)c3ccc4c(C)n(C)nc4c3)n2)cc1S(N)(=O)=O` [PAZOPANIB], in data set [1], the inhibition in vivo at 100 mg/kg worked out at 93%. In data set [2], the concentration at 16 h was found to be 13 µM.
